Assay results from ChEMBL document CHEMBL4261494, “Design, synthesis and biological evaluation of novel Schiff base-bridged tetrahydroprotoberberine triazoles as a new type of potential antimicrobial agents” (Medchemcomm, 2017).
Converted amounts (≈) assume the structure as drawn. The source made the active and inactive calls. The calls are words filed in the database; no cut-off is given here.

Legend:
Shigella dysenteriae = assay type: functional; conditions: 24 h
Escherichia coli [1] = assay type: functional; conditions: DH52, 24 h
[2] = Aqueous solubility of the compound in pH 7.4 phosphate buffer at 1 mg after 3 hrs by UV absorption analysis; assay type: physicochemical
Staphylococcus aureus [3] = assay type: functional; conditions: ATCC 25923, 24 h
Staphylococcus aureus [4] = assay type: functional; conditions: N315, 24 h
Micrococcus luteus = assay type: functional; conditions: ATCC 4698, 24 h
Bacillus spizizenii = assay type: functional; conditions: ATCC 6633, 24 h
DNA = test: Induction of Escherichia coli supercoiled pUC19 DNA cleavage at 0.0125 mM after 16 hrs in absence of Zn2+ by ethidium bromide staining-based agarose gel electrophoresis method; assay type: nucleic-acid assay
Pseudomonas aeruginosa = assay type: functional; conditions: ATCC 27853, 24 h
Candida albicans = assay type: functional; conditions: for MIC: ATCC 10231, 24 h
Kregervanrija fluxuum = assay type: functional
Escherichia coli [5] = test: Potency index, ratio of chloromycin MIC to test compound MIC for Escherichia coli JM109; assay type: functional
Salmonella typhi [6] = test: microbe, parasite or virus in culture; conditions: Salmonella enterica, 24 h
Escherichia coli [7] = assay type: functional; conditions: JM109, 24 h
Cyberlindnera jadinii = assay type: functional
Saccharomyces cerevisiae = assay type: functional; conditions: 24 h
Proteus vulgaris = assay type: functional; conditions: ATCC 13315, 24 h
Salmonella typhi [8] = test: Potency index, ratio of chloromycin MIC to test compound MIC for Bacillus typhi; assay type: functional, Salmonella enterica subsp. enterica serovar Typhi
Aspergillus flavus = assay type: functional

SMILES	MIC (Shigella dysenteriae)	MIC (Escherichia coli [1])	solubility at 3 h [2]	MIC (Staphylococcus aureus [3])	MIC (Staphylococcus aureus [4])	MIC (Micrococcus luteus)	MIC (Bacillus spizizenii)	MIC (Pseudomonas aeruginosa)	MIC (Salmonella typhi [6])	MIC (Escherichia coli [7])	MIC (Proteus vulgaris)	further results
COc1ccc2cc3[n+](cc2c1OC)CCc1cc2c(cc1-3)OCO2 [BERBERINE]	256 µg/mL	> 512 µg/mL	85 µg/mL	512 µg/mL	128 µg/mL	> 512 µg/mL	> 512 µg/mL	256 µg/mL	–	–	–	Activity (DNA): inactive
CCCCCCOc1c(OC)cc(/C=N/n2cnnc2)c2c1CN1CCc3cc4c(cc3C1C2)OCO4 (centres undefined)	8 µg/mL (≈ 15.9 µM)	32 µg/mL (≈ 63.5 µM)	442 µg/mL (≈ 878 µM)	8 µg/mL (≈ 15.9 µM)	32 µg/mL (≈ 63.5 µM)	16 µg/mL (≈ 31.8 µM)	8 µg/mL (≈ 15.9 µM)	32 µg/mL (≈ 63.5 µM)	2 µg/mL (≈ 3.97 µM)	4 µg/mL (≈ 7.94 µM)	16 µg/mL (≈ 31.8 µM)	MIC (Candida albicans): 2 to 32 µg/mL (≈ 3.97 to 63.5 µM); MIC (Kregervanrija fluxuum; ATCC 9888, 24 h): 2 to 32 µg/mL (≈ 3.97 to 63.5 µM); Ratio (Escherichia coli [5]): 8; MIC (Cyberlindnera jadinii; Williopsis jadinii, ATCC 9950, 24 h): 2 to 32 µg/mL (≈ 3.97 to 63.5 µM); MIC (Saccharomyces cerevisiae): 2 to 32 µg/mL (≈ 3.97 to 63.5 µM); Ratio (Salmonella typhi [8]): 16; MIC (Aspergillus flavus; ATCC 204304, 24 h): 2 to 32 µg/mL (≈ 3.97 to 63.5 µM)
COc1cc(/C=N/n2cnnc2)c2c(c1OCc1ccc(Cl)cc1Cl)CN1CCc3cc4c(cc3C1C2)OCO4 (centres undefined)	512 µg/mL (≈ 885 µM)	256 µg/mL (≈ 443 µM)	–	16 µg/mL (≈ 27.7 µM)	8 µg/mL (≈ 13.8 µM)	128 µg/mL (≈ 221 µM)	32 µg/mL (≈ 55.3 µM)	32 µg/mL (≈ 55.3 µM)	32 µg/mL (≈ 55.3 µM)	16 µg/mL (≈ 27.7 µM)	32 µg/mL (≈ 55.3 µM)	–
COc1cc(/C=N/n2cnnc2)c2c(c1OCc1cccc(F)c1)CN1CCc3cc4c(cc3C1C2)OCO4 (centres undefined)	256 µg/mL (≈ 485 µM)	256 µg/mL (≈ 485 µM)	–	256 µg/mL (≈ 485 µM)	512 µg/mL (≈ 971 µM)	32 µg/mL (≈ 60.7 µM)	512 µg/mL (≈ 971 µM)	16 µg/mL (≈ 30.3 µM)	512 µg/mL (≈ 971 µM)	> 512 µg/mL	64 µg/mL (≈ 121 µM)	MIC (Candida albicans): 0.5 µg/mL (≈ 0.948 µM)
COc1cc(/C=N/n2cnnc2)c2c(c1OCc1cccc(Cl)c1)CN1CCc3cc4c(cc3C1C2)OCO4 (centres undefined)	64 µg/mL (≈ 118 µM)	512 µg/mL (≈ 941 µM)	–	256 µg/mL (≈ 471 µM)	256 µg/mL (≈ 471 µM)	512 µg/mL (≈ 941 µM)	512 µg/mL (≈ 941 µM)	512 µg/mL (≈ 941 µM)	256 µg/mL (≈ 471 µM)	0.5 µg/mL (≈ 0.919 µM)	512 µg/mL (≈ 941 µM)	–
CCCCOc1c(OC)cc(/C=N/n2cnnc2)c2c1CN1CCc3cc4c(cc3C1C2)OCO4 (centres undefined)	8 µg/mL (≈ 16.8 µM)	32 µg/mL (≈ 67.3 µM)	121 µg/mL (≈ 254 µM)	16 µg/mL (≈ 33.6 µM)	8 µg/mL (≈ 16.8 µM)	1 µg/mL (≈ 2.1 µM)	16 µg/mL (≈ 33.6 µM)	16 µg/mL (≈ 33.6 µM)	16 µg/mL (≈ 33.6 µM)	16 µg/mL (≈ 33.6 µM)	16 µg/mL (≈ 33.6 µM)	–
COc1cc(/C=N/n2cnnc2)c2c(c1OCc1ccc([N+](=O)[O-])cc1)CN1CCc3cc4c(cc3C1C2)OCO4 (centres undefined)	64 µg/mL (≈ 115 µM)	512 µg/mL (≈ 923 µM)	–	512 µg/mL (≈ 923 µM)	16 µg/mL (≈ 28.9 µM)	2 µg/mL (≈ 3.61 µM)	256 µg/mL (≈ 462 µM)	64 µg/mL (≈ 115 µM)	4 µg/mL (≈ 7.21 µM)	128 µg/mL (≈ 231 µM)	512 µg/mL (≈ 923 µM)	–
COc1cc(/C=N/n2cnnc2)c2c(c1O)CN1CCc3cc4c(cc3C1C2)OCO4 (centres undefined)	256 µg/mL (≈ 610 µM)	128 µg/mL (≈ 305 µM)	392 µg/mL (≈ 935 µM)	64 µg/mL (≈ 153 µM)	16 µg/mL (≈ 38.1 µM)	1 µg/mL (≈ 2.38 µM)	512 µg/mL (≈ 1220 µM)	128 µg/mL (≈ 305 µM)	128 µg/mL (≈ 305 µM)	128 µg/mL (≈ 305 µM)	64 µg/mL (≈ 153 µM)	Activity (Candida albicans; ATCC 10231): inactive; Activity (Kregervanrija fluxuum; ATCC 9888): inactive; Activity (Cyberlindnera jadinii; ATCC 9950): inactive; Activity (Aspergillus flavus; ATCC 204304): inactive
COc1cc(/C=N/n2cnnc2)c2c(c1OCc1ccccc1Cl)CN1CCc3cc4c(cc3C1C2)OCO4 (centres undefined)	16 µg/mL (≈ 29.4 µM)	64 µg/mL (≈ 118 µM)	–	16 µg/mL (≈ 29.4 µM)	16 µg/mL (≈ 29.4 µM)	256 µg/mL (≈ 471 µM)	32 µg/mL (≈ 58.8 µM)	2 µg/mL (≈ 3.68 µM)	1 µg/mL (≈ 1.84 µM)	4 µg/mL (≈ 7.35 µM)	512 µg/mL (≈ 941 µM)	–
